According to patent publication US9181290B2, “Inhibition of biofilm formation by 1,2,3,4,6-penta-O-galloyl-D-glucopyranose” (CHANG GUNG UNIVERSITY, priority 2011, dated 2015):
Like-named read-outs stand apart in the source and are kept apart here.

What was measured:
[1] = system: S. aureus SA113 (ATCC 35556); test: Bacterial growth (A578) and biofilm formation (crystal violet, A595) in 96-well polystyrene microtiter plates; format: cell-based, Staphylococcus aureus; conditions: for IC50: Staphylococcus aureus, read-out: IB50 (concentration that inhibited 50% biofilm formation); for Cell Growth (%): growth compared to untreated control at the concentration of IB50
Protocol: An overnight bacterial culture was 200-fold diluted with TSBg, and a 200 μL aliquot of the diluted culture was seeded into each well of 96-well polystyrene microtiter plates and incubated at 37° C. for a designated period of time. Cell growth was determined by measuring the absorbance at 578 nm (A578) with a microtiter plate reader (SpectraMax 340, Molecular Devices). After washing with PBS twice to remove suspended cells, the wells were stained with 0.1% (w/v) crystal violet in 10% ethanol and then treated with 30% acetic acid in dH2O, followed by detecting the absorbance at 595 nm (A595) with the microtiter plate reader to quantify the amount of biofilm formed on polystyrene surface.
An overnight culture of S. aureus SA113 was 200-fold diluted with TSBg, and a 200 μL aliquot of the diluted culture was seeded into each well of 96-well microtiter plates. Compounds purified from medicinal plants were added into each well at a designated concentration up to […]. At 6 hours after seeding, the amounts of biofilms formed in the wells were determined by crystal violet staining as described above. Cells treated with either distilled water or DMSO were used as a control. The amount of biofilm formation by the control group was set as 100%. Each experiment was repeated at least three times, with n=6 for each sample tested. The concentrations of compounds that inhibited 50% biofilm formation (IB50) were calculated based on logistic regression analysis results. Besides, the biofilm formation inhibition rate of a PGG-treated group was calculated using the following equation (1). Biofilm formation inhibition rate(%)=[(A−B)/A]×100 (1) wherein:
In the wells of 96-well microtiter plates, S. aureus SA113 cells were cultured in TSBg broth in the presence of either β-PGG or α-PGG at different amounts (0, 1 and 10 μM). After incubation at 37° C. for 6 hrs, the cell density was determined by measuring the absorbance at 578 nm (A578), and the amounts of biofilm were quantified by crystal violet staining, with the amount of biofilm formed by untreated bacterial cells being set as 100%. Each experiment was repeated three times, with n=6 for each sample tested.
To determine the effect(s) of (β-PGG upon bacterial growth and biofilm formation, β-PGG in various amounts (final concentration: 0, 1.56, 3.13, 6.25, 12.5, 25 and 50 μM) was added into the culture of S. aureus SA113 during seeding into the wells of polystyrene microtiter plates, followed by incubation at 37° C. for 6 hrs or 24 hrs. Cell growth was determined by measuring the absorbance at 578 nm, and the amount of biofilm formed on polystyrene surface was determined at 595 nm after crystal violet staining. In addition to polystyrene surface, the effect of β-PGG in inhibiting biofilm formation on polycarbonate surface was also examined according to the procedures as described in the preceding section entitled “Materials and methods.”

[2] = system: S. aureus; test: Biofilm formation after treatment with other strong antioxidants (data not shown); format: cell-based, Staphylococcus aureus
[3] = ATCC35556, 6 hours, logistic regression

| Compound | Cell Growth (%) [1] [%] | IC50 [1, 3] [µM] | influence on biofilm formation [2] | also measured |
| --- | --- | --- | --- | --- |
| NC(=O)CI [IDA, Iodoacetamide, reference compound] | 50 | – | – | IC50 ([1]; ATCC35556, 6 h): 120 µM |
| CC(=O)N[C@@H](CS)C(=O)O [NAC, N-acetylcysteine, reference compound] | 88 | 6380 | – | – |
| O=C1C=CC(=O)N1c1ccccc1 [NPM, N-phenyl maleimide, reference compound] | 66 | 41.9 | – | – |
| O=C1O[C@H]([C@@H](O)CO)C(O)=C1O [ascorbic acid] | – | – | does not influence biofilm formation | – |
| O=C(OC[C@H]1O[C@H](OC(=O)c2cc(O)c(O)c(O)c2)[C@H](OC(=O)c2cc(O)c(O)c(O)c2)[C@@H](OC(=O)c2cc(O)c(O)c(O)c2)[C@@H]1OC(=O)c1cc(O)c(O)c(O)c1)c1cc(O)c(O)c(O)c1 [α-PGG, 1,2,3,4,6-Penta-O-galloyl-α-D-glucopyranose] | – | – | – | viability of S. aureus SA113 cells (A578) ([1]; 1 μM and 10 μM, 6 hour incubation (anomer comparison)): did not affect the viability; reduction of biofilm formation ([1]; 1 μM, 6 hour incubation (anomer comparison)): 13%; reduction of biofilm formation ([1]; 10 μM, 6 hour incubation (anomer comparison)): 65% |
| (−)-epigallocatechin gallate | – | – | does not influence biofilm formation | – |
